Laboratory results: paper PMC13210772, “Dual FLT3/MAPK14 Proteolysis-Targeting Chimera (PROTAC) Induces Potent Acute Myeloid Leukemia Cell Death” (Pharmaceuticals, 2026)

Tests used:
MV4-11 = system: MV4-11; parameters: method as in PMID 30427680, PMID 34959180, PMID 34694800, PMID 36332882, PMID 38655686; conditions: reported FLT3 PROTACs, Figure 1; cited from earlier work
MOLM-13 = system: MOLM-13; parameters: method as in PMID 30427680, PMID 34959180, PMID 34694800, PMID 36332882, PMID 38655686; conditions: reported FLT3 PROTACs, Figure 1; cited from earlier work
MOLM-14 = system: MOLM-14; parameters: method as in PMID 36518702; conditions: reported FLT3 PROTAC, Figure 1; cited from earlier work
FLT3-ITD [1] = assay: KINOMEscan binding assay
Method: Binding to FLT3-ITD was determined using the KINOMEscan^TM assay (Eurofins DiscoverX Corporation, San Diego, CA, USA)
Kinase-tagged T7 phage strains were prepared in an E. coli host derived from the BL21 strain. E. coli were grown to log-phase and infected with T7 phage and incubated with shaking at 32 °C until lysis. The lysates were centrifuged and filtered to remove cell debris. The remaining kinases were produced in HEK-293 cells and subsequently tagged with DNA for qPCR detection. […] The liganded beads were blocked with excess biotin and washed with blocking buffer (SeaBlock (Pierce), 1% BSA, 0.05% Tween 20, 1 mM DTT) to remove unbound ligand and to reduce non-specific binding. […] The compounds were then diluted directly into the assays such that the final concentration of DMSO was 0.9%. All reactions performed in polypropylene 384-well plate. Each was a final volume of 0.02 mL. […] The kinase concentration in the eluates was measured by qPCR.

FLT3-ITD [2] = molecular target: T1, FLT3-ITD (Homo sapiens, UniProt P36888, INS600HVDFREYEYD); assay: FLT3-ITD degradation, immunoblot in MV4-11 cells; conditions: MV4-11 cells, 50 nM, 24 h
T1 sequence (P36888 with tags, fused parts or gaps INS600HVDFREYEYD): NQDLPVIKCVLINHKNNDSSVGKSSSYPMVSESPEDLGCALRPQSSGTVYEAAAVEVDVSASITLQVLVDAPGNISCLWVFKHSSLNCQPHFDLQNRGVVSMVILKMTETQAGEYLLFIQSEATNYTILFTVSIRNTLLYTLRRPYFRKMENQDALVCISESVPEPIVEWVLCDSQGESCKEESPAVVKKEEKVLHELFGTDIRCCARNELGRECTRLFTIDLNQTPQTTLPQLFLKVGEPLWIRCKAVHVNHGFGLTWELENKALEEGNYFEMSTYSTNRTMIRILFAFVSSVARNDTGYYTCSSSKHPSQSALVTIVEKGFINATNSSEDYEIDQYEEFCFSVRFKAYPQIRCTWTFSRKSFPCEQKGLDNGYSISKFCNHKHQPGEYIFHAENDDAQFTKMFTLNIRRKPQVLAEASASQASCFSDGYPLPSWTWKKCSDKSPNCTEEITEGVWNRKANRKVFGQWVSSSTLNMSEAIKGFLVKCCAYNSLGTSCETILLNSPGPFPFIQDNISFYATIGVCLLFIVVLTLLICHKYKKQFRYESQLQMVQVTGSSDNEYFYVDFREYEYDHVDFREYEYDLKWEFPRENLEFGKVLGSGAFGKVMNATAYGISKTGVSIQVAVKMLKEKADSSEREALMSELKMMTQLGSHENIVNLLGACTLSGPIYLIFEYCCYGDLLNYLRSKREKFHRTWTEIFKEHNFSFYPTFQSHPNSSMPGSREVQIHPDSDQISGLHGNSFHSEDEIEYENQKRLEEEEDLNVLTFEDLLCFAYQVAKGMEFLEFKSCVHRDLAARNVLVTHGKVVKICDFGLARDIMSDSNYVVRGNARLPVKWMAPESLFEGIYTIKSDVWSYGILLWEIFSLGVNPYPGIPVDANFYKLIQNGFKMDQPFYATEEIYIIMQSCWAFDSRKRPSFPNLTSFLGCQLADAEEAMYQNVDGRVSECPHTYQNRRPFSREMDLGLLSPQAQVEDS

MAPK14 [3] = molecular target: T2, MAPK14 (Homo sapiens, UniProt Q16539); assay: MAPK14 degradation, immunoblot in leukemia cells; format: cell-based; parameters: endogenous in cells; host or cells: K562, RS4-11, MV4-11, MOLM-13 (A17); MV4-11 (A20); conditions: K562, RS4-11, MV4-11 and MOLM-13 cells; 50 nM MA191, 24 h
MAPK14 [4] = molecular target: T2, MAPK14; assay: Phosphorylation of MAPK14, immunoblot in MV4-11 cells; format: cell-based; parameters: endogenous in cells; host or cells: K562, RS4-11, MV4-11, MOLM-13 (A17); MV4-11 (A20)
FLT3-ITD [5] = molecular target: T1, FLT3-ITD; assay: Phosphorylation of FLT3-ITD, immunoblot in MV4-11 cells; format: cell-based; parameters: We treated MV4-11 cells with the synthesized degraders of FLT3; endogenous in cells; host or cells: MV4-11
Excerpt: We aimed to delineate if the FLT3 inhibitor part of MA191 acts as a MAPK14 inhibitor in MV4-11 cells. We used the phosphorylation of FLT3-ITD and the phosphorylation of MAPK14 as markers for their activation. […] This finding is consistent with the detection of MAPK14 in the kinase selectivity profiling approach (Figure 3; MAPK14 is termed p38α therein).
(§1) Figure 7 Targeting MAPK14 augments anti-leukemic effects of an inhibition of FLT3-ITD. (a) The graphs show the mRNA levels of MAPK14 in leukemia cells and normal blood cells. […] All immunoblots show data from at least two independent repetitions. (c) Model for how inhibition of various signaling pathways affects AML cells (red, cytoplasm, blue, nucleus).

HL-60 = system: HL-60; parameters: method as in PMID 36332882; conditions: reported FLT3 PROTAC, Figure 1; cited from earlier work
CSNK1D = CSNK1D (Homo sapiens, UniProt P48730); assay: NanoBRET CELLinib128
caspase-3 = assay: Caspase-3 cleavage, immunoblot in MV4-11 cells; format: cell-based, human
Excerpt: The usefulness of a combined inhibition of FLT3-ITD and MAPK14 through depletion may also be effective against leukemia stem cells that require cytokines signaling through MAPK14 [48]. Further studies are necessary to test this idea.
as §1

T2 sequence (Q16539 2-360 limits assumed): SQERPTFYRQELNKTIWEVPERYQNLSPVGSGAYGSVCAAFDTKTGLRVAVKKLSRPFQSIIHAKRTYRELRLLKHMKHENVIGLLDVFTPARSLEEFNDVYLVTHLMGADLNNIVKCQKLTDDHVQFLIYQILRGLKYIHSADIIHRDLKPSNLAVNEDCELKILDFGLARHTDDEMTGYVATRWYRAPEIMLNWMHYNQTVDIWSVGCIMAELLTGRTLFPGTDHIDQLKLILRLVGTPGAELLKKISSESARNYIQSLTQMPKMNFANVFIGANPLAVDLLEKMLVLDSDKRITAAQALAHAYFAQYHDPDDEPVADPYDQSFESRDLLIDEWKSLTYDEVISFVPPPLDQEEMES
Chain of CSNK1D (P48730 whole entry): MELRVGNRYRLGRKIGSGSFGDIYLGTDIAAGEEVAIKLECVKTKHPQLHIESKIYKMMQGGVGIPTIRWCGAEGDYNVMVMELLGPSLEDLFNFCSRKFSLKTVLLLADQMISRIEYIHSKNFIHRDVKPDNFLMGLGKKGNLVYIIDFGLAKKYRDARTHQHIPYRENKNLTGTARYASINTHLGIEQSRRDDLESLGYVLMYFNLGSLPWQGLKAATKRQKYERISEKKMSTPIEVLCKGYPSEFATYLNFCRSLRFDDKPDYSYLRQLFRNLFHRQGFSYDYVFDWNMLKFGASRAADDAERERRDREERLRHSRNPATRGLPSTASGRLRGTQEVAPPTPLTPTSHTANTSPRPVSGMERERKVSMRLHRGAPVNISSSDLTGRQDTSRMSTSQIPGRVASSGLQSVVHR

Row | SMILES | IC50 (MV4-11) [nM] | IC50 (MOLM-13) [nM] | also measured
1 | Cc1c(NC(=O)CN2CCN(CC3CCN(c4ccc5c(c4)C(=O)N(C4CCC(=O)NC4=O)C5=O)CC3)CC2)c[nH]c1/C=C1\C(=O)Nc2ccc(F)cc21 (stereo not shown) [A20] | 39.9 ± 3.4 | 170 ± 3.4 | 
2 | CCc1nc(C(N)=O)c(Nc2ccc(N3CCC(N4CCN(CC5CCN(C(=O)CCOCCOCCNc6cccc7c6C(=O)N(C6CCC(=O)NC6=O)C7=O)CC5)CC4)CC3)c(OC)c2)nc1NC1CCOCC1 (stereo not shown) [CRBN(FLT3)-8] | 0.9 |  | IC50 (MOLM-14): 2.8 nM
3 | CCc1nc(C(N)=O)c(Nc2ccc(N3CCC(N4CCN(C(=O)COc5cccc6c5CN(C5CCC(=O)NC5=O)C6=O)CC4)CC3)c(OC)c2)nc1NC1CCOCC1 (stereo not shown) [LWY713] | 1.5 |  | 
4 | Cc1ncsc1-c1ccc([C@H](C)NC(=O)[C@H]2C[C@H](O)CN2C(=O)[C@@H](NC(=O)[C@H]2CC[C@H](C(=O)N3CCN(CCNC(=O)c4cc(Oc5ccc(NC(=O)Nc6cc(C(C)(C)C)on6)cc5)ccn4)CC3)CC2)C(C)(C)C)cc1 [MA225, 4-(4-(3-(5-(tert-Butyl)isoxazol-3-yl)ureido)phenoxy)-N-(2-(4-(trans-4-(((S)-1-((2R,4S)-4-hydroxy-2-(((S)-1-(4-(4-methylthiazol-5-yl)phenyl)ethyl)carbamoyl)pyrrolidin-1-yl)-3,3-dimethyl-1-oxobutan-2-yl)carbamoyl)cyclohexanecarbonyl)piperazin-1-yl)ethyl)picolinamide] |  |  | % FLT3-ITD Binding at 1 µM (FLT3-ITD [1]): 97 ± 2%; % FLT3-ITD Degradation at 50 nM (FLT3-ITD [2]): No effect; FLT3-ITD degradation (FLT3-ITD [2]): did not reduce the levels of FLT3-ITD and MAPK14; MAPK14 protein level, immunoblot (MAPK14 [3]): did not reduce the levels of FLT3-ITD and MAPK14; phosphorylated MAPK14 (p-MAPK14) (MAPK14 [4]): weak inhibition of phosphorylated MAPK14; phosphorylation of FLT3-ITD (FLT3-ITD [5]): inhibited the phosphorylation of FLT3-ITD
5 | Cc1ncsc1-c1ccc(CNC(=O)[C@@H]2C[C@@H](O)CN2C(=O)[C@@H](NC(=O)COCCOCCNC(=O)c2c(C)[nH]c(/C=C3\C(=O)Nc4ccc(F)cc43)c2C)C(C)(C)C)cc1 [PROTAC5] |  |  | IC50 (HL-60): 2900 ± 1500 nM
6 | Cc1ncsc1-c1ccc(CNC(=O)[C@@H]2C[C@@H](O)CN2C(=O)[C@@H](NC(=O)CCOCCOCCOc2ccc3c(c2)sc2nc(-c4ccc(NC(=O)Nc5cc(C(C)(C)C)on5)cc4)cn23)C(C)(C)C)cc1 [Quizaritinib-based PROTAC] | 0.6 ± 0.08 |  | 
7 | CN[C@@H]1C[C@H]2O[C@@](C)([C@@H]1OC)n1c3ccccc3c3c4c(c5c6ccccc6n2c5c31)C(=O)NC4 [Staurosporine] |  |  | EC50 (CSNK1D): 10400 nM
8 | CCc1nc(C(N)=O)c(Nc2ccc(N3CCN(CCC4CCN(CC(=O)N[C@H](C(=O)N5C[C@H](O)C[C@H]5C(=O)N[C@@H](C)c5ccc(-c6scnc6C)cc5)C(C)(C)C)CC4)CC3)c(OC)c2)nc1NC1CCOCC1 [Z29] | 5.5 ± 0.2 | 8 ± 0.2 | 
9 | CNC(=O)c1cc(Cl)ccn1 [compound 1] | 18.7 ± 2.1 | 10.1 ± 1 | 
10 | Nc1ccc(O)cc1 [compound 2] | 9.2 ± 1 | 9.5 ± 0.7 | 
11 | Cc1ccc(-n2nc(C(C)(C)C)cc2NC(=O)Nc2ccc(OCCN3CCOCC3)c3ccccc23)cc1 [doramapimod, reference compound] |  |  | caspase-3 cleavage (caspase-3): did not induce caspase-3 cleavage; phosphorylation of FLT3-ITD (FLT3-ITD [5]): did not affect FLT3-ITD and its activity
